Patent US7517870B2, “Use of compounds that interfere with the hedgehog signaling pathway for the manufacture of a medicament for preventing, inhibiting, and/or reversing ocular diseases related with ocular neovascularization” (Fondazione Telethon, priority 2004, dated 2009)

Assays:
[1] = tested on: VEGF protein expression in 293 cells; conditions: HEK-293 cells, desferroxamine 100 μM, Cyclopamine 10 μM, 24 hours
Method: Five μl of 95% ethanol was added to untreated control.
Twenty-four hours after induction of hypoxia the supernatant of the 293 cells was removed from wells and a human VEGF ELISA (R & D Systems, Minneapolis, Minn.) was performed on the cell supernatants (FIG. 4) as described in the Quantikine human VEGF ELISA protocol using a dilution of
the medium of 1:10. ELISA results were read on a Bio-Rad Reader 550 ELISA plate reader (Bio-Rad Laboratories, Inc, CA).

Hh-dependent tumors = conditions: mice that carry Hh-dependent tumors; cited from earlier work
[2] = tested on: retinal (ocular) neovascularization; assay: Angiography after fluorescein-dextran perfusion in mouse model of Retinopathy of Prematurity (ROP); type: in vivo, C57/BL6 mice; conditions: ROP mice
Description: To determine whether inhibition of the Shh signaling pathway by administration of an siRNA targeting Shh is able to reduce retinal (ocular) neovascularization, siRNA targeting Shh is administrated to a mouse model of Retinopathy of Prematurity (ROP).
C57/BL6 mice are used in this study. Mice from postnatal day 7 (P7) to P12 are exposed to hyperoxia (25% nitrogen, 75% oxygen). At P12 mice return to room air until P17. The group of five mice treated with siRNA targeting Shh receive a daily subretinal injection (1 μl) of 100 mg/ml siRNA targeting Shh dissolved in Phosphate-Buffered Saline (PBS) from P12 to P17, controls receive the vehicle alone.

[3] = daily subretinal injection (1 μl) of 100 mg/ml siRNA in PBS from P12 to P17, angiography on P17, vs vehicle control eyes

CC1=C2C[C@H]3[C@@H](CC=C4C[C@@H](O)CC[C@@]43C)[C@@H]2CC[C@]12O[C@@H]1C[C@H](C)CN[C@H]1[C@H]2C [cyclopamine]
inhibition of hypoxia-induced VEGF expression [1]: Able to Inhibit Hypoxia-Induced VEGF Expression | effect on Hh-dependent tumors (Hh-dependent tumors): growth inhibition and regression of cancerous tissue | health of treated animals (Hh-dependent tumors): does not affect the health of treated animals | inhibition of ocular neovascularization (neovascular tufts and vessel leakage) ([2]; daily subcutaneous injection of 50 mg/kg from P12 to P17, angiography on P17, vs vehicle control eyes): Robust inhibition of ocular neovascularization

siRNA targeting Gli1: siRNA duplex, SEQ ID NO:19 (sense strand) and SEQ ID NO:20 (antisense strand) (sense ACGCCGCAGCAGCAGCUCCUU; antisense GGAGCUGCUGCUGCGGCGUUU; listed as RNA, chemistry not given here)
inhibition of ocular neovascularization (neovascular tufts and vessel leakage) [2, 3]: Robust inhibition of ocular neovascularization

siRNA targeting Shh: siRNA duplex, SEQ ID NO:16 (sense strand) and SEQ ID NO:15 (antisense strand) (sense AAUUACAACCCCGACAUCAUAUU; antisense UAUGAUGUCGGGGUUGUAAUUUU; listed as RNA, chemistry not given here)
inhibition of ocular neovascularization (neovascular tufts and vessel leakage) [2, 3]: Robust inhibition of ocular neovascularization

siRNA targeting Smoothened: siRNA duplex, SEQ ID NO:17 (sense strand) and SEQ ID NO:18 (antisense strand) (sense AAGGCCUUCUCUAAGCGGCAUU; antisense UGCCGCUUAGAGAAGGCCUUUU; listed as RNA, chemistry not given here)
inhibition of ocular neovascularization (neovascular tufts and vessel leakage) [2, 3]: Robust inhibition of ocular neovascularization

B1: soluble Hip1: secreted form of Hedgehog interacting protein 1 lacking the transmembrane domain (SEQ ID NO:6), produced in 293 cells (protein, listed as Mus musculus)
chain: MLKMLSFKLLLLAVALGFFEGDAKFGERNEGSGARRRRCLNGNPPKRLKRRDRRVMSQLELLSGGEILCGGFYPRVSCCLQSDSPGLGRLENKIFSATNNSECSRLLEEIQCAPCSPHSQSLFYTPERDVLDGDLALPLLCKDYCKEFFYTCRGHIPGLLQTTADEFCFYYARKDAGLCFPDFPRKQVRGPASNYLGQMEDYEKVGGISRKHKHNCLCVQEVMSGLRQPVSAVHSGDGSHRLFILEKEGYVKILTPEGELFKEPYLDIHKLVQSGIKGGDERGLLSLAFHPNYKKNGKLYVSYTTNQERWAIGPHDHILRVVEYTVSRKNPHQVDVRTARVFLEVAELHRKHLGGQLLFGPDGFLYIILGDGMITLDDMEEMDGLSDFTGSVLRLDVDTDMCNVPYSIPRSNPHFNSTNQPPEVFAHGLHDPGRCAVDRHPTDININLTILCSDSNGKNRSSARILQIIKGRGYESEPSLLEFKPFSNGPLVGGFVYRGCQSERLYGSYVFGDRNGNFLTLQQSPVTKQWQEKPLCLGASSSCRGYFSGHILGFGEDELGEVYILSSSKSMTQTHNGKLYKIVDPKRPLMPEECRVTVQPAQPLTSDCSRLCRNGYYTPTGKCCCSPGWEGDFCRIAKCEPACRHGGVCVRPNKCLCKKGYLGPQCEQVDRNVRRVTR
inhibition of ocular neovascularization (neovascular tufts and vessel leakage) ([2]; daily subretinal injection of 50 mg/kg in PBS from P12 to P17, angiography on P17, vs vehicle control eyes): Robust inhibition of ocular neovascularization
